Test results as given in the NIST ThermoML archive (doi:10.1016/j.jct.2016.10.002).
± gives the expanded uncertainty stated by the source.

What was measured:
[1] = refractive index (Na D-line) (dimensionless); xn = mol fraction of the nth substance listed; conditions: 303.15 K, 101 kPa, Liquid, Standard Abbe refractometry
[2] = refractive index (Na D-line) (dimensionless); conditions: 303.15 K; 101.33 kPa; Liquid; Standard Abbe refractometry

Row | Structure (SMILES) | refractive index ([1]; x1 = 0.333) | other results
1 | C[N+](C)(C)CCO.[Cl-] [choline chloride] + OCC(O)CO | 1.4853 ± 0.0007 | –
2 | C[N+](C)(C)CCO.[Cl-] [choline chloride] + OCCO | 1.4691 ± 0.0007 | –
3 | O=C(O)CC(=O)O [propanedioic acid] + C[N+](C)(C)CCO.[Cl-] | – | refractive index ([1]; x2 = 0.5): 1.4866 ± 0.0008
4 | O [water] | – | refractive index [2]: 1.332 ± 0.0007
